From ChEMBL document CHEMBL5046291, “Evodiamine-Inspired Topoisomerase-Histone Deacetylase Dual Inhibitors: Novel Orally Active Antitumor Agents for Leukemia Therapy” (J Med Chem, 2022)
Activity calls are given as the source filed them. No cut-off for these calls is given here.

Assays:
A549 = test: Antiproliferative activity against human A549 cells assessed as cell growth inhibition incubated for 8 hrs by CCK8 assay; assay type: functional, cell-based; conditions: A549, 8 h
HCT-116 = test: Antiproliferative activity against human HCT-116 cells assessed as cell growth inhibition incubated for 8 hrs by CCK8 assay; assay type: functional, cell-based; conditions: HCT-116, 8 h
HEL = test: Antiproliferative activity against HEL cells assessed as cell growth inhibition incubated for 8 hrs by CCK8 assay; assay type: functional, cell-based; conditions: Homo sapiens
HepG2 = test: Antiproliferative activity against human HepG2 cells assessed as cell growth inhibition incubated for 8 hrs by CCK8 assay; assay type: functional, cell-based; conditions: HepG2, 8 h
MCF7 = test: Antiproliferative activity against human MCF7 cells assessed as cell growth inhibition incubated for 8 hrs by CCK8 assay; assay type: functional, cell-based; conditions: MCF7, 8 h
K562 = test: Antiproliferative activity against human K562 cells assessed as cell growth inhibition incubated for 8 hrs by CCK8 assay; assay type: functional, cell-based; conditions: K562, 8 h
[1] = target: DNA topoisomerase 2-alpha (Homo sapiens) (UniProt P11388); test: Inhibition of recombinant Top2 (unknown origin) assessed as inhibition of relaxation of supercoiled pBR322 plasmid DNA at 50 uM incubated for 15 mins by ethidium bromide staining based agarose gel electrophoresis analysis
Chain of DNA topoisomerase 2-alpha (Homo sapiens) (P11388 whole entry): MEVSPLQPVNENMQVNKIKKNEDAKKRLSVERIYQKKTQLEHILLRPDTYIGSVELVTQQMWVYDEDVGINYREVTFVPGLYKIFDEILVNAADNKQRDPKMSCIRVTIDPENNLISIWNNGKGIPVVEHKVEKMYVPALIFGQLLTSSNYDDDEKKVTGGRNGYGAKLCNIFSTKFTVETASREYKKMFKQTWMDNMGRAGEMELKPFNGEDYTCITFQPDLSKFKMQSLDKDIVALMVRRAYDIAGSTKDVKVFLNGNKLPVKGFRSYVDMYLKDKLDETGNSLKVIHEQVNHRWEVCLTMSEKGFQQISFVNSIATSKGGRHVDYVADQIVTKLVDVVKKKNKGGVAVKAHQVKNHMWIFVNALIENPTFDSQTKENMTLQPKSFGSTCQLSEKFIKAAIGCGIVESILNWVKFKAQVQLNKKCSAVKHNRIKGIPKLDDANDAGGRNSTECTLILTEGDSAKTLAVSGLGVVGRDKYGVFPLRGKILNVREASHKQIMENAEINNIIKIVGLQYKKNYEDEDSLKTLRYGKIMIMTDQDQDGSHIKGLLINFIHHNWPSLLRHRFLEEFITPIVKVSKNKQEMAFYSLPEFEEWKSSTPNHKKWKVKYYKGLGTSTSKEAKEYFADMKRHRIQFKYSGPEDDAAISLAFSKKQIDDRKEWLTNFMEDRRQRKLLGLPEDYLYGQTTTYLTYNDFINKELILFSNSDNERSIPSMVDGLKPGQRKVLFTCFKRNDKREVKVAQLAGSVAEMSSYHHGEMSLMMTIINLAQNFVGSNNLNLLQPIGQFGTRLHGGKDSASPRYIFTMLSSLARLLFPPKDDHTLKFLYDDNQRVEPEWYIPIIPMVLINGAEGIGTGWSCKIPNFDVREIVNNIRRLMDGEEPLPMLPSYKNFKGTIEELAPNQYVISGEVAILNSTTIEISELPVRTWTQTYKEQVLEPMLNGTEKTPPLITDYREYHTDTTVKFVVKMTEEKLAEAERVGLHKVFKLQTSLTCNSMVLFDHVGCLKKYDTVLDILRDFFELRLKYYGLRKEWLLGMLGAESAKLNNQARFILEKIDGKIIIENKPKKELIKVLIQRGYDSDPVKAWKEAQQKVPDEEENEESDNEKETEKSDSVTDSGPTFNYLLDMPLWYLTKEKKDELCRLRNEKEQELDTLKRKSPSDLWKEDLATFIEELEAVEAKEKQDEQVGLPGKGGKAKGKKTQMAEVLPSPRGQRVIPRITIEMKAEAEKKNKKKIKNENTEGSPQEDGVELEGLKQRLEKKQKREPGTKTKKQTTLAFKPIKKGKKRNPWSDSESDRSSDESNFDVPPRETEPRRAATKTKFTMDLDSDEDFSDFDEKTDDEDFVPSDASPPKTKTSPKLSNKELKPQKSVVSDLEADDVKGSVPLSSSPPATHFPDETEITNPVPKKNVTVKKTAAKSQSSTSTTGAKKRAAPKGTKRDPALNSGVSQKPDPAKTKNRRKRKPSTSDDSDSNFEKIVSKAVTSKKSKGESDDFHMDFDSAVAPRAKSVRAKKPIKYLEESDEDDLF

[2] = target: DNA topoisomerase 2-alpha (Homo sapiens) (UniProt P11388); test: Inhibition of recombinant Top2 (unknown origin) assessed as inhibition of relaxation of supercoiled pBR322 plasmid DNA at 100 uM incubated for 15 mins by ethidium bromide staining based agarose gel electrophoresis analysis
Histone deacetylase 1 = Histone deacetylase 1 (Homo sapiens, UniProt Q13547); test: Inhibition of full-length recombinant human HDAC1 expressed in Baculovirus expression system using Ac-Leu-Gly-Lys(Ac)-AMC as substrate preincubated for 5 mins followed by substrate addition and further incubated for 30 mins by fluorescence based microtiter plate reader assay
Chain of Histone deacetylase 1 (Q13547 whole entry): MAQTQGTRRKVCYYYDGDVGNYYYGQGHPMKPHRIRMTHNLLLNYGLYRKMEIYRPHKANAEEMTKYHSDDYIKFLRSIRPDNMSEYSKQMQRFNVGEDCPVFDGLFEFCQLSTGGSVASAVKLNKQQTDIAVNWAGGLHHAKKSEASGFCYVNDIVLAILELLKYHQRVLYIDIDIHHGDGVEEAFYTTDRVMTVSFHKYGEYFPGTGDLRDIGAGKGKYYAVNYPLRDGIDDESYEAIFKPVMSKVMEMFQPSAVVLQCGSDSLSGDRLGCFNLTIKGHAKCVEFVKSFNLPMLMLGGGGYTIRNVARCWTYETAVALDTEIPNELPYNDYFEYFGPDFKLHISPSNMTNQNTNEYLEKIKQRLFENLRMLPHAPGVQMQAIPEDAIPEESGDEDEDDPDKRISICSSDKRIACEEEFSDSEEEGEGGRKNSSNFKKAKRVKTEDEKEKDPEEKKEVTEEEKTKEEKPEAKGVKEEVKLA

[3] = target: T1, DNA topoisomerase 1 (Homo sapiens) (UniProt P11387); test: Inhibition of recombinant Top1 (unknown origin) assessed as inhibition of relaxation of supercoiled pBR322 plasmid DNA at 100 uM incubated for 15 mins by ethidium bromide staining based agarose gel electrophoresis analysis
T1 sequence (whole entry): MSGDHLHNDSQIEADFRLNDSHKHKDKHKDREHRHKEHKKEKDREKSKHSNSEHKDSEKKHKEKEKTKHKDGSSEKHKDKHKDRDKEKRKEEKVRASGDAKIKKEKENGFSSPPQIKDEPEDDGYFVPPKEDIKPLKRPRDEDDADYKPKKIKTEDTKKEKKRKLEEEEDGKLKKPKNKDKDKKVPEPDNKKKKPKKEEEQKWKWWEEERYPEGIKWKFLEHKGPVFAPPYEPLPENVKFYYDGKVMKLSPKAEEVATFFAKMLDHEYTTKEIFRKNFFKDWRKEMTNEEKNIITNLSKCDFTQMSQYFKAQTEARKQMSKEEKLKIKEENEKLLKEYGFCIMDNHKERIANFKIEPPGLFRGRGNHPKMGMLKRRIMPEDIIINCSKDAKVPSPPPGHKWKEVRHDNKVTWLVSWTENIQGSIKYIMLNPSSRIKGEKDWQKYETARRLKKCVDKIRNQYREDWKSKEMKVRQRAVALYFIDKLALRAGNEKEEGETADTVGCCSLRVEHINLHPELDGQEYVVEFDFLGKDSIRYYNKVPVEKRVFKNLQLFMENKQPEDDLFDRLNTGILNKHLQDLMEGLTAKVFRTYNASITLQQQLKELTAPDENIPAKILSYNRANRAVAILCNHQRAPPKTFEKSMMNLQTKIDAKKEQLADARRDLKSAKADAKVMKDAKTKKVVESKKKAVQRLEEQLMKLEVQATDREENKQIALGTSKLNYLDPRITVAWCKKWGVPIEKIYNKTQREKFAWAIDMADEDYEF

| Compound | IC50 (A549) | IC50 (HCT-116) | IC50 (HepG2) | IC50 (MCF7) | IC50 (K562) | inhibition [1] | inhibition [2] | IC50 (Histone deacetylase 1) | inhibition [3] | IC50 (HEL) |
| --- | --- | --- | --- | --- | --- | --- | --- | --- | --- | --- |
| CC[C@@]1(O)C(=O)OCc2c1cc1n(c2=O)Cc2cc3c(CN(C)C)c(O)ccc3nc2-1 [TOPOTECAN] | 8300 nM | 970 nM | 3300 nM | 140 nM | 910 nM |  |  |  |  | 26000 nM |
| CN1c2ccc(F)cc2C(=O)N2CCc3c([nH]c4ccc(OCc5cccc(C(=O)NO)c5)cc34)C21 (stereo not drawn) | > 2000 nM | > 2000 nM | 1620 nM | > 2000 nM | > 2000 nM | Active | Active | 1900 nM | Active | 580 nM |
| CN1c2ccc(F)cc2C(=O)N2CCc3c([nH]c4ccc(OCc5cccc(C(=O)Nc6ccccc6N)c5)cc34)C21 (stereo not drawn) | 1320 nM | > 2000 nM | 420 nM | > 2000 nM | 1380 nM |  |  | 3600 nM | inactive | 660 nM |
| CN1c2ccc(F)cc2C(=O)N2CCc3c([nH]c4ccc(OCc5ccccc5C(=O)NO)cc34)C21 (stereo not drawn) | 1210 nM | 150 nM | 120 nM | 800 nM | 86 nM | Active | Active | 6100 nM | Active | 290 nM |
| CN1c2ccc(F)cc2C(=O)N2CCc3c([nH]c4ccc(OCc5ccc(C(=O)NO)cc5)cc34)C21 (stereo not drawn) | > 2000 nM | 500 nM | 98 nM | 160 nM | 250 nM | Active | Active | 32 nM | inactive | > 2000 nM |
| CN1c2ccc(F)cc2C(=O)N2CCc3c([nH]c4ccc(OCc5ccc(C(=O)Nc6ccccc6N)cc5)cc34)C21 (stereo not drawn) | > 2000 nM | > 2000 nM | 125000 nM | 1910 nM | 250 nM |  |  | 31 nM | Active | 44 nM |
| CN1c2ccc(F)cc2C(=O)N2CCc3c([nH]c4ccc(OCc5ccccc5C(=O)Nc5ccccc5N)cc34)C21 (stereo not drawn) | 830 nM | 220 nM | 440 nM | 420 nM | 920 nM |  |  | 1900 nM | inactive | 820 nM |

Second part, led by results:

| IC50 (A549) | IC50 (HCT-116) | IC50 (HepG2) | IC50 (MCF7) | IC50 (K562) | inhibition [1] | inhibition [2] | IC50 (Histone deacetylase 1) | inhibition [3] | Compound | IC50 (HEL) |
| --- | --- | --- | --- | --- | --- | --- | --- | --- | --- | --- |
| 720 nM | > 2000 nM | > 2000 nM | > 2000 nM | 1200 nM |  |  | 320 nM | inactive | CN1c2ccc(F)cc2C(=O)N2CCc3c([nH]c4ccc(OCCCCCC(=O)Nc5ccccc5N)cc34)C21 (stereo not drawn) | 1100 nM |
| 330 nM | > 2000 nM | 810 nM | 1560 nM | 410 nM | Active | Active | 21 nM | inactive | CN1c2ccc(F)cc2C(=O)N2CCc3c([nH]c4ccc(OCCCCC(=O)NO)cc34)C21 (stereo not drawn) | 580 nM |
| > 2000 nM | > 2000 nM | 520 nM | > 2000 nM | 180 nM | Active | Active | 360 nM | Active | CN1c2ccc(F)cc2C(=O)N2CCc3c([nH]c4ccc(OCc5ccc(CC(=O)NO)cc5)cc34)C21 (stereo not drawn) | 100 nM |
| 1250 nM | 1030 nM | 160 nM | 52000 nM | 280 nM |  |  | 2200 nM | inactive | CN1c2ccc(F)cc2C(=O)N2CCc3c([nH]c4ccc(OCCCC(=O)Nc5ccccc5N)cc34)C21 (stereo not drawn) | 350 nM |
| 300 nM | 120 nM | 210 nM | 150 nM | 670 nM | Active | Active | 4 nM | inactive | CN1c2ccc(F)cc2C(=O)N2CCc3c([nH]c4ccc(OCCCCCC(=O)NO)cc34)C21 (stereo not drawn) | 100 nM |
| > 2000 nM | > 2000 nM | > 2000 nM | 1230 nM | 550 nM | Active | Active | 2200 nM | Active | CN1c2ccc(F)cc2C(=O)N2CCc3c([nH]c4ccc(OCCCC(=O)NO)cc34)C21 (stereo not drawn) | 270 nM |
| 820 nM | 600 nM | 1250 nM | 1260 nM | > 2000 nM |  |  | 2100 nM | inactive | CN1c2ccc(F)cc2C(=O)N2CCc3c([nH]c4ccc(OCCCCC(=O)Nc5ccccc5N)cc34)C21 (stereo not drawn) | 720 nM |
| 1580 nM | > 2000 nM | > 2000 nM | > 2000 nM | > 2000 nM |  | inactive | 150 nM | Active | CN1c2ccc(F)cc2C(=O)N2CCc3c([nH]c4ccc(OCCCCCCCC(=O)NO)cc34)C21 (stereo not drawn) | 1580 nM |
| 630 nM | 830 nM | 200 nM | 210 nM | > 2000 nM | Active | Active | 3 nM | Active | CN1c2ccc(F)cc2C(=O)N2CCc3c([nH]c4ccc(OCCCCCCC(=O)NO)cc34)C21 (stereo not drawn) | > 2000 nM |
| 810 nM | > 2000 nM | 1260 nM | 830 nM | 1380 nM | Active | Active | 25 nM | Active | CN1c2ccc(F)cc2C(=O)N2CCc3c([nH]c4ccc(OCCCCCCC(=O)Nc5ccccc5N)cc34)C21 (stereo not drawn) | 1850 nM |
